Results from article PMC10078976 (Nature chemistry, 2022).
Blank lines part the entries; values can stand above or below the molecule they belong to.

Assays:
[1] = lasso peptides, aspartimide hydrolysis; cited from earlier work
[2] = target: doubly dehydrated C62A ThfA (Thermobifida fusca); test: BLI
[3] = target: unmodified C62A ThfA (Thermobifida fusca); test: BLI

Molecule: cellulonodin-2
regioselectivity of aspartimide opening [1]: open exclusively to the Asp backbone form

Molecule: lihuanodin
regioselectivity of aspartimide opening [1]: open exclusively to the Asp backbone form

Kd [2]: 18 nM
Kd [3]: 28 nM
B1: maltose binding protein (MBP) fusion to ThfB (enzyme)
chain: MSQAEYEFAATEARRGFGGIINSLTGWINHPSAIGRAEYKPYQLHHAVQAGLNVPRTLITNDPKQAKGWCARVGDVVYKPLSAPSWLENGDTYVVFTTPITPDQWGDPAIGRTAHMFQQRLDKEFEVRLTMVDGKAFPAAIHAHSDAARIDWRSDYDALTYSIPTVPQRVLTGARDLLRRLHLRYAALDFIVSPDGRWHFLEVNPNGQYGWIEEHTGQPISDAIADALTRKEN
modifications: not checked
